{"source": "patent US20250243219A1", "about": "“MACROCYCLIC COMPOUNDS AND USES THEREOF” (Cypralis Limited, priority 2022, published 2025)", "key": {"[1]": {"target": "cyclophilin A (Homo sapiens (Human), UniProt P62937)", "sequence (P62937 whole entry, species assumed)": "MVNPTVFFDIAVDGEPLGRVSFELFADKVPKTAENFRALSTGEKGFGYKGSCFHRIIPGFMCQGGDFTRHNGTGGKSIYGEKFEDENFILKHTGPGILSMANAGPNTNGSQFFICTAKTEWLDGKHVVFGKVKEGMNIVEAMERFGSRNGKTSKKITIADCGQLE", "assay": "Functional peptidyl prolyl isomerase (PPIase) spectrophotometric assay, cyclophilin A", "format": "biochemical", "details": "first value of CypA/D cell", "procedure,_shortened": "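Cuvette-based UV/Vis assay of PPIase-catalysed cis-to-trans isomerisation of a peptide substrate. First-order rate constants fitted to absorbance, background rate subtracted. Ki derived from rate constant versus inhibitor concentration, typically 6-point curves in duplicate.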"}, "[2]": {"assay": "Blood-brain barrier penetration, intravenous dosing", "format": "in vivo, rodents (mice or rats)", "details": "3 mg/kg intravenous", "protocol": "(§1) Test compounds were administered to rodents (mice or rats) either orally, subcutaneously or intravenously. To determine blood or plasma concentrations blood samples were taken at different time points and analysed for the concentration of test compound by LC/MS. Brain concentrations were measured by sacrificing animals and LC/MS analysis of brain homogenate.\nThe results for Compounds (2), (19), (6) and (27) are summarised in Table 6 showing concentrations of the Compounds in blood plasma and the brain."}, "[3]": {"assay": "Pharmacokinetics in mice, oral dose", "format": "in vivo, mice (strain FVB/N)", "details": "oral 10 mg/kg", "protocol": "as §1, with “homogenate. FIG. 2 illustrates graphs for the concentration (ng/ml) Compound (2) in blood, blood plasma and in the brain at 30 minutes to 7 hours after oral treatment.” for “homogenate.”"}, "[4]": {"tested_on": "EAE C57BL/6J mice", "assay": "Experimental autoimmune encephalomyelitis (EAE) mouse model of multiple sclerosis", "format": "in vivo", "details": "75 mg/kg orally BID for 14 days", "protocol": "C57BL/6 mice are the most commonly used strain. For the induction of EAE, typically, the immunogenic epitope MOG35-55 of myelin oligodendrocyte glycoprotein is suspended in complete Freund's adjuvant (CFA) prior to immunization. Thereafter, pertussis toxin (PT) is applied on the day of immunization and a couple of days later to facilitate the induction of EAE. Animals are assessed by body weight change, EAE scoring and histopathological examination for both inflammation and demyelination.\nCompound (2) was dissolved at a dose level of 75 mg/kg with a final concentration of 20 mg/ml (in 66.6% PEG/water), and administered orally BID (i.e. every 12 hours) to C57BL/6J mice at a dose volume of 3.75 ml/kg. Treatment was started concomitant with the first signs of disease (around days 10-12) and continued for 14 days. The animals were evaluated for general clinical signs, body weight change and neurological score. After termination of treatment the animals were sacrificed, brains and spinal cords were collected, fixed in formalin 4% and processed for staining with haematoxylin and eosin."}, "[5]": {"details": "vs vehicle group, not statistically significant"}}, "note": "Read-outs that look alike come from different tables or passages of the source."}
{"compound": "CC(C)[C@@H]1OC(=O)C(C)(C)/C=C/c2ccc3ccc(nc3c2)N(C)NC(=O)[C@@H]2CCCN(N2)C(=O)[C@H](C)NC1=O", "note": "[Compound (2)]", "values": [{"measurement": "Ki", "setting": "[1]", "value": 5, "unit": "nM"}, {"measurement": "Blood-brain barrier passage", "setting": "[2]", "value": "passed the blood-brain barrier"}, {"measurement": "concentration at 30 min", "setting": "[2]; brain, read-out: Brain concentration", "value": 170, "unit": "ng/mL"}, {"measurement": "concentration at 30 min", "setting": "[2]; plasma, read-out: Plasma concentration", "value": 222, "unit": "ng/mL"}, {"measurement": "Kp", "setting": "[3]; FVB/N, mouse, brain and blood", "value": 0.72}, {"measurement": "Tmax", "setting": "[3]; FVB/N, mouse, brain, read-out: Tmax Brain", "value": 7, "unit": "h"}, {"measurement": "Cmax", "setting": "[3]; FVB/N, mouse, plasma, read-out: Cmax Plasma", "value": 582, "unit": "ng/mL"}, {"measurement": "half-life", "setting": "[3]; FVB/N, mouse, plasma, read-out: T1/2 Plasma (converted)", "value": 3, "unit": "h"}, {"measurement": "Tmax", "setting": "[3]; FVB/N, mouse, plasma, read-out: Tmax Plasma", "value": 0.5, "unit": "h"}, {"measurement": "Cmax", "setting": "[3]; FVB/N, mouse, whole blood, read-out: Cmax Whole blood", "value": 1490, "unit": "ng/mL"}, {"measurement": "half-life", "setting": "[3]; FVB/N, mouse, whole blood, read-out: T1/2 Whole blood (converted)", "value": 5.45, "unit": "h"}, {"measurement": "Tmax", "setting": "[3]; FVB/N, mouse, whole blood, read-out: Tmax Whole blood", "value": 0.5, "unit": "h"}, {"measurement": "AUC0-t Plasma", "setting": "[3]", "value": 3180, "unit": "ng/mL/h"}, {"measurement": "AUC0-t Whole blood", "setting": "[3]", "value": 12500, "unit": "ng/mL/h"}, {"measurement": "Blood/plasma", "setting": "[3]", "value": 2.87, "unit": "Ratio"}, {"measurement": "Cmax Brain", "setting": "[3]", "value": 297, "unit": "ng/mL"}, {"measurement": "Extent of spinal cord damage", "setting": "[4]; vs untreated control, FIG. 4", "value": "significant reduction"}, {"measurement": "Body weight gain", "setting": "[4]; [5]", "value": "better body weight gain"}, {"measurement": "Clinical score", "setting": "[4]; [5]", "value": "reduction in the clinical score"}]}
